In US11883395B2 (priority 2020, dated 2024):

System: human coronavirus (hCOV)-OC43
Format: cell-based

O=C1O[C@H]2[C@@H]3OC(=O)c4cc(O)c(O)c(O)c4-c4c(O)c(O)c5oc(=O)c6c(c(O)c(O)c7oc(=O)c4c5c76)-c4c(cc(O)c(O)c4O)C(=O)OC[C@H]3OC(O)[C@@H]2OC(=O)c2cc(O)c(O)c(O)c2-c2c1cc(O)c(O)c2O (mixture of isomers) [punicalagin]
significantly decreased: hCoV-OC43 envelope protein mRNA level | hCoV-OC43 membrane protein mRNA level | hCoV-OC43 spike protein mRNA level

O=C(C1CC1)N1CCN(Cn2sc3ccccc3c2=O)CC1 [LOC13, 2-[[4-(cyclopropylcarbonyl)-1-piperazinyl]methyl]-1,2-benzisothiazol-3(2H)-one]
significantly decreased: hCoV-OC43 envelope protein mRNA level | hCoV-OC43 membrane protein mRNA level | hCoV-OC43 spike protein mRNA level
